Test results taken from patent US20250000767A1, “FORMULATIONS AND METHODS FOR SKIN REGENERATION” (ENTRINSIC, LLC, priority 2023, published 2025).

Tests used:
Assay type in all cases: cell-based, human
[1] = test system: skin barrier marker genes in differentiated NHEK; assay: comparative analysis of qPCR data from two donors with scoring system, single amino acids; details: for ranking as most effective or least effective amino acids (scoring system): qPCR data from two donors
From the text: The scoring system was developed to address the numerous variables arising from the experimental results. […] See, e.g., FIGS. 3 and 4.
(§1) To test the effect of amino acid treatment on epithelial skin barrier, a cellular model of differentiated normal human epidermal keratinocytes (NHEK) was utilized. Commercially available NHEK (ATCC), derived from three diverse healthy donors, were used.

[2] = test system: EGF, PDGF, FGF2, and PPARD genes (skin barrier markers); assay: single amino acids and combinations on barrier marker genes EGF, FGF2, PDGF, PPARD in differentiated NHEK (FIG. 28); details: alone or in combination; action on skin barrier markers
Protocol: Treatment time-4 h. […] Exemplary barrier marker genes examined as follows: Epidermal growth factor (EGF); fibroblast growth factor 2 (FGF2); platelet derived growth factor (PDGF); Peroxisome Proliferator Activated Receptor Delta (PPARD).
Once the skin barrier marker panel was identified, a scoring system by which to evaluate different amino acids or combinations thereof under consideration was developed. The scoring system was developed to address the numerous variables arising from the experimental results. […] Sec, e.g., FIG. 28. […] See, e.g., FIG. 29.
as §1
The marker genes: epidermal growth factor (EGF); platelet-derived growth factor (PDGF), fibroblast growth factor 2 (FGF2), peroxisome proliferator activated receptor delta (PPARD).
Amino acid(s) are mixed in previously established concentrations in water and added to amino acid-deprived culture medium.
mRNA is extracted, converted to cDNA, and analyzed by qPCR method using custom TaqMan array 384-well plates (Thermo Fisher Scientific) containing the above-mentioned genes. Control housekeeping genes were included to normalize the mRNA expression: GAPDH and/or YWHAZ. The array plate contained the genes and samples were analyzed in by qPCR.

COL1A1 mRNA = COL1A1 mRNA fold change in donor keratinocytes, 4GAA and retinol (qPCR); details: 4 h, amino acid-deprived medium, 4GAA 4 mM, ROL 10 μM
Protocol: (§2) FIGS. 17A-17C show the fold change of a specific gene mRNA comparing the 4 amino acid combination (Ala, Gln, Gly, Ser; 4GAA; 4 mM), and retinol (ROL; 10 μM), alone or in combination, to control (CTR; untreated control without amino acids or retinol) with Donor E, Donor G. Donor O, Donor R, and Donor T human-derived epidermal keratinocytes (NHEK) with a 4 h treatment in amino acid (AA)-deprived medium. The data are shown in graphical form showing CTR; 4GAA (4 mM); ROL (10 μM); 4GAA (4 mM)+ROL (10 μM) combination.
(§3) Keratinocytes from different donors (e.g., human-derived epidermal keratinocytes (NHEK)), skin equivalents (e.g., 3D models (human epidermal skin equivalents)), or fibroblasts (e.g., human dermal fibroblasts, adult (HDFa)) were cultured in amino acid-deprived media or complete media for 4 hours or 24 hours after complete differentiation and, in parallel, were treated with an amino acid combination (4GAA; alanine, glutamine, glycine, serine) at 4 mM, 10 μM retinol (ROL), or the combination of 4 mM 4GAA and 10 μM ROL. Cells were harvested, RNA was extracted, and qPCR analysis was performed with a housekeeping gene, e.g., GAPDH.
(§4) FIGS. 17A-17C and 18A-18C show the graphical results of the fold change, where the average fold change is depicted by the horizontal bar for each condition and each of the donors (Donors E, G, O, R, T) is depicted by a colored circle. […]

HAS3 mRNA = HAS3 mRNA fold change in donor keratinocytes, 4GAA and retinol (qPCR); details: 4GAA 4 mM, ROL 10 μM
Protocol: (§5) FIGS. 18A-18C show the fold change of a specific gene mRNA comparing the 4 amino acid combination (Ala, Gln, Gly, Ser; 4GAA; 4 mM), and retinol (ROL; 10 μM), alone or in combination with Donor E. Donor G. Donor O. Donor R. and Donor T human-derived epidermal keratinocytes (NHEK) to control (CTR; untreated control without amino acids or retinol) with a 4 h treatment in amino acid (AA)-deprived medium. The data of FIGS. 18A-18C are shown in graphical form showing CTR; 4GAA (4 mM); ROL (10 μM); 4GAA (4 mM)+ROL (10 μM) combination. […] FIGS. 18D-18F show the data in tabular form (Donor E (n=3). Donor G (n=3). Donor O (n=3). Donor R (n=3), and Donor T (n=3)) for fold change of HAS1 mRNA. HAS2 mRNA, and HAS3 mRNA, respectively, and in tabular form showing the fold change for each of the specified conditions under each respective graphical form.
(§6) FIGS. 19A-19D show the fold change of a specific gene mRNA comparing the 4 amino acid combination (Ala. Gln. Gly, Ser; 4GAA; 4 mM), and retinol (ROL; 10 μM), alone or in combination to control (CTR; untreated control without amino acids or retinol) with Donor O human-derived epidermal keratinocytes (NHEK) with a 24 h treatment in complete medium. The data of FIGS. 19A-19D are shown in graphical form showing CTR; 4GAA (4 mM); ROL (10 μM); 4GAA (4 mM)+ROL (10 μM) combination. […]

TGFB mRNA = TGFB mRNA fold change in donor keratinocytes, 4GAA and retinol (qPCR); details: 4 h, amino acid-deprived medium, 4GAA 4 mM, ROL 10 μM
Protocol: as §2, §3, §4

HAS2 mRNA = HAS2 mRNA fold change in donor keratinocytes, 4GAA and retinol (qPCR); details: 4GAA 4 mM, ROL 10 μM
Protocol: as §5, §6

[3] = Donor O and Donor R keratinocytes, 24 h, complete medium
[4] = donor keratinocytes, 4 h, amino acid-deprived medium

In the case of `N[C@@H](Cc1ccc(O)cc1)C(=O)O` [Tyr, tyrosine], the “ranking as most effective or least effective amino acids (scoring system)” value (from here on “ranking”) [1] is reported as “least effective”.

`CC[C@H](C)[C@H](N)C(=O)O` [isoleucine] was tested, and the “effect on skin regeneration including skin barrier function” value [2] was “beneficial effect”.

`N[C@@H](CC(=O)O)C(=O)O` [Asp, aspartic acid] was tested, and the “ranking” value [1] was “least effective”.

With `C[C@H](N)C(=O)O` [Ala, alanine] the “effect on skin regeneration including skin barrier function” value [2] was “beneficial effect” and the “ranking” value [1] was “most effective”.

For `NCC(=O)O` [Gly, glycine], the “effect on skin regeneration including skin barrier function” value [2] was “beneficial effect” and the “ranking” value [1] was “most effective”.

In the case of `NC(=O)CC[C@H](N)C(=O)O` [Gln, glutamine], the “effect on skin regeneration including skin barrier function” value [2] is reported as “beneficial effect” and the “ranking” value [1] is reported as “most effective”.

For `N[C@@H](Cc1c[nH]c2ccccc12)C(=O)O` [Trp, tryptophan], the “effect on skin regeneration including skin barrier function” value [2] was “beneficial effect” and the “effects in preliminary screens” value [1] was “positive effects”.

With `CC1=C(/C=C/C(C)=C/C=C/C(C)=C/CO)C(C)(C)CCC1` [ROL, retinol] the “COL1A1 mRNA expression” value (COL1A1 mRNA) was “upregulated”, the “HAS3 mRNA gene expression” value (HAS3 mRNA; [3]) was “upregulated” and the HAS3 gene expression (HAS3 mRNA; [4]) was “upregulated”. The “TGFB mRNA expression” value (TGFB mRNA) was “upregulated”, the “HAS2 mRNA gene expression” value (HAS2 mRNA; [3]) was “upregulated” and the HAS2 gene expression (HAS2 mRNA; [4]) was “upregulated”.

`N=C(N)NCCC[C@H](N)C(=O)O` [Arg, arginine] was tested, and the “effect on skin regeneration including skin barrier function” value [2] was “beneficial effect” and the “effects in preliminary screens” value [1] was “positive effects”.

With `N[C@@H](CO)C(=O)O` [Ser, serine] the “effect on skin regeneration including skin barrier function” value [2] was “beneficial effect” and the “ranking” value [1] was “most effective”.

With `CC(C)[C@H](N)C(=O)O` [valine] the “effect on skin regeneration including skin barrier function” value [2] was “beneficial effect”.

In the case of `O=C(O)[C@@H]1CCCN1` [Pro], the “ranking” value [1] is reported as “least effective”.

For `C[C@@H](O)[C@H](N)C(=O)O` [Thr, threonine], the “effect on skin regeneration including skin barrier function” value [2] was “beneficial effect” and the “ranking” value [1] was “least effective”.

With `N[C@@H](CS)C(=O)O` [Cys, cysteine] the “ranking” value [1] was “least effective”.
